The values below come from patent publication US8653089B2, “Heterocyclic compounds and methods of use” (F. Hoffmann-La Roche AG, priority 2011, dated 2014).

Molecules are shown by their SMILES. Where two headings read alike, the source gives them in different places.

In this test the test system is production of CD69 by B lymphocytes in human whole blood activated by crosslinking surface IgM. The experiment in a line: CD69 human whole blood assay (Example 903), FACS. The format is cell-based. Conditions: B lymphocytes activated with goat F(ab')2 anti-human IgM, read-out: CD69 Hu Blood FACS IC50. From the text: There is good evidence that B-cells play a key role in the pathogenesis of autoimmune and/or inflammatory disease. Protein-based therapeutics that deplete B cells such as Rituxan are effective against autoantibody-driven inflammatory diseases such as rheumatoid arthritis (Rastetter et al. (2004) Annu Rev Med 55:477). CD69 is the early activation marker in leukocytes including T cells, thymocytes, B cells, NK cells, neutrophils, and eosinophils. The CD69 human whole blood assay (Example 903) determines the ability of compounds to inhibit the production of CD69 by B lymphocytes in human whole blood activated by crosslinking surface IgM with goat F(ab′)2 anti-human IgM.

In the case of `CC(Nc1ncnc2[nH]cnc12)c1nc2ccc(F)cc2n1-c1ccc(C#N)cc1` (stereo not shown) [Example 248, 4-{6-Fluoro-2-[1-(9H-purin-6-ylamino)-ethyl]-benzoimidazol-1-yl}-benzonitrile], the IC50 was 78.9 nM. On to `C[C@H](Nc1ncnc2[nH]cnc12)c1nc2ccc(F)cc2n1[C@@H]1CCCN(CCO)C1` [Example 256, 2-((R)-3-{6-Fluoro-2-[(S)-1-(9H-purin-6-ylamino)-ethyl]-benzoimidazol-1-yl}-piperidin-1-yl)-ethanol], for which, under “Homo sapiens, Lymphocyte”, the IC50 was determined as 68.3 nM.

With `Cc1nc(N)nc(N[C@@H](C)c2nc3ccc(F)cc3n2-c2ccccc2)n1` [Example 258, N—[(S)-1-(6-Fluoro-1-phenyl-1H-benzoimidazol-2-yl)-ethyl]-6-methyl-[1,3,5]triazine-2,4-diamine], the IC50 (Homo sapiens, Lymphocyte) came out at 141 nM.

Take `C[C@H](Nc1ncnc2[nH]cnc12)c1nc2ccc(F)cc2n1-c1cncc(F)c1` [Example 260, {(S)-1-[6-Fluoro-1-(5-fluoro-pyridin-3-yl)-1H-benzoimidazol-2-yl]-ethyl}-(9H-purin-6-yl)-amine]: the IC50 (Homo sapiens, Lymphocyte) was 25.7 nM. Same read-out and setting: the result for `CC(Nc1ncnc2[nH]cnc12)c1nc2ccc(F)cc2n1-c1cncc(F)c1` (stereo not shown) [Example 263, {1-[6-Fluoro-1-(5-fluoro-pyridin-3-yl)-1H-benzoimidazol-2-yl]-ethyl}-(9H-purin-6-yl)-amine] reads 25.4 nM; that for `COC[C@H](Nc1ncnc2[nH]cnc12)c1nc2ccc(F)cc2n1-c1ccccn1` [Example 270, [(R)-1-(6-Fluoro-1-pyridin-2-yl-1H-benzoimidazol-2-yl)-2-methoxy-ethyl]-(9H-purin-6-yl)-amine], 152 nM.

`COC[C@H](Nc1ncnc(N)c1C#N)c1nc2ccc(F)cc2n1-c1ccccn1` [Example 271, 4-Amino-6-[(R)-1-(6-fluoro-1-pyridin-2-yl-1H-benzoimidazol-2-yl)-2-methoxy-ethylamino]-pyrimidine-5-carbonitrile]: the IC50 (Homo sapiens, Lymphocyte) amounted to 38.8 nM. Regarding `C[C@H](Nc1ncnc2[nH]cnc12)c1nc2ccc(F)c(C(=O)N3CCOCC3)c2n1-c1ccccc1` [Example 273, {5-Fluoro-3-phenyl-2-[(S)-1-(9H-purin-6-ylamino)-ethyl]-3H-benzoimidazol-4-yl}-morpholin-4-yl-methanone], where the note is “Homo sapiens, Lymphocyte”, the IC50 turned out to be 26.8 nM.

Take `C[C@H](Nc1ncnc2[nH]cnc12)c1nc2ccc(F)c(C3CC3)c2n1-c1ccccn1` [Example 274, [(S)-1-(7-Cyclopropyl-6-fluoro-1-pyridin-2-yl-1H-benzoimidazol-2-yl)-ethyl]-(9H-purin-6-yl)-amine]: the IC50 (Homo sapiens, Lymphocyte) was 26.8 nM. Still for that read-out and setting: the result for `C[C@H](Nc1ncnc(N)c1C#N)c1nc2ccc(F)cc2n1-c1ccccn1` [Example 275, 4-Amino-6-[(S)-1-(6-fluoro-1-pyridin-2-yl-1H-benzoimidazol-2-yl)-ethylamino]-pyrimidine-5-carbonitrile] reads 27.5 nM; that for `C[C@H](Nc1ncnc(N)c1C#N)c1nc2ccc(F)cc2n1-c1cncc(F)c1` [Example 277, 4-Amino-6-{(S)-1-[6-fluoro-1-(5-fluoro-pyridin-3-yl)-1H-benzoimidazol-2-yl]-ethylamino}-pyrimidine-5-carbonitrile], 18 nM. Turning to `C[C@H](Nc1ncnc2[nH]cnc12)c1nc2ccc(F)cc2n1[C@H]1CCCN(CCO)C1` [Example 278, 2-((S)-3-{6-Fluoro-2-[(S)-1-(9H-purin-6-ylamino)-ethyl]-benzoimidazol-1-yl}-piperidin-1-yl)-ethanol], the IC50 (Homo sapiens, Lymphocyte) stood at 16.6 nM. Same read-out and setting: to `C[C@H](Nc1ncnc2[nH]cnc12)c1nc2cccc(C#N)c2n1-c1ccccc1` [Example 279, 3-Phenyl-2-[(S)-1-(9H-purin-6-ylamino)-ethyl]-3H-benzoimidazole-4-carbonitrile] belongs 184 nM; to `OC[C@H](Nc1ncnc2[nH]cnc12)c1nc2ccc(F)cc2n1-c1ccccn1` [Example 280, (R)-2-(6-Fluoro-1-pyridin-2-yl-1H-benzoimidazol-2-yl)-2-(9H-purin-6-ylamino)-ethanol], 139 nM. Consider `C[C@H](Nc1ncnc2[nH]cnc12)c1nc2ccc(F)c(C#N)c2n1-c1cccnc1` [Example 281, 5-Fluoro-2-[(S)-1-(9H-purin-6-ylamino)-ethyl]-3-pyridin-3-yl-3H-benzoimidazole-4-carbonitrile], for which the IC50 (Homo sapiens, Lymphocyte) came out at 110 nM. Turning to `Cc1c(F)ccc2nc([C@H](C)Nc3ncnc(N)c3C#N)n(-c3ccccn3)c12` [Example 289, 4-Amino-6-[(S)-1-(6-fluoro-7-methyl-1-pyridin-2-yl-1H-benzoimidazol-2-yl)-ethylamino]-pyrimidine-5-carbonitrile], the IC50 (Homo sapiens, Lymphocyte) turned out to be 48.3 nM. On to `C[C@H](Nc1ncnc(N)c1C#N)c1nc2ccc(F)c(C#N)c2n1-c1ccccn1` [Example 291, 2-[(S)-1-(6-Amino-5-cyano-pyrimidin-4-ylamino)-ethyl]-5-fluoro-3-pyridin-2-yl-3H-benzoimidazole-4-carbonitrile], for which the IC50 (Homo sapiens, Lymphocyte) was found to be 97.2 nM. On to `C[C@H](Nc1ncnc2[nH]cnc12)c1nc2ccc(F)c(C3CC3)c2n1-c1cccnc1` [Example 294, [(S)-1-(7-Cyclopropyl-6-fluoro-1-pyridin-3-yl-1H-benzoimidazol-2-yl)-ethyl]-(9H-purin-6-yl)-amine], for which the IC50 (Homo sapiens, Lymphocyte) was determined as 4.1 nM. Still for that read-out and setting: the result for `C[C@H](Nc1ncnc(N)c1C#N)c1nc2cccc(C3CC3)c2n1-c1cccnc1` [Example 299, 4-Amino-6-[(S)-1-(7-cyclopropyl-1-pyridin-3-yl-1H-benzoimidazol-2-yl)-ethylamino]-pyrimidine-5-carbonitrile] reads 35.5 nM; that for `C[C@H](Nc1ncnc(N)c1C#N)c1nc2ccc(F)c(Br)c2n1-c1cccnc1` [Example 301, 4-Amino-6-[(S)-1-(7-bromo-6-fluoro-1-pyridin-3-yl-1H-benzoimidazol-2-yl)-ethylamino]-pyrimidine-5-carbonitrile], 34.1 nM; that for `CC(Nc1ncnc(N)c1C#N)c1nc2cccnc2n1-c1ccccc1` (stereo not shown) [Example 302, 4-Amino-6-[1-(3-phenyl-3H-imidazo[4,5-b]pyridin-2-yl)-ethylamino]-pyrimidine-5-carbonitrile], 189 nM.

On to `OCC[C@H](Nc1ncnc2[nH]cnc12)c1nc2ccc(F)cc2n1-c1ccccn1` [Example 304, (S)-3-(6-Fluoro-1-pyridin-2-yl-1H-benzoimidazol-2-yl)-3-(9H-purin-6-ylamino)-propan-1-ol], for which the half-maximal inhibitory concentration (IC50) (Homo sapiens, Lymphocyte) was 172 nM. For the compound `C[C@H](Nc1ncnc(N)c1C#N)c1nc2ccc(F)c(C3CC3)c2n1-c1cccnc1` [Example 306, 4-Amino-6-[(S)-1-(7-cyclopropyl-6-fluoro-1-pyridin-3-yl-1H-benzoimidazol-2-yl)-ethylamino]-pyrimidine-5-carbonitrile], the IC50 (Homo sapiens, Lymphocyte) was 2.87 nM.

For `C[C@H](Nc1ccncc1C#N)c1nc2ccc(F)cc2n1-c1ccccc1` [Example 312, 4-[(S)-1-(6-Fluoro-1-phenyl-1H-benzoimidazol-2-yl)-ethylamino]-nicotinonitrile], the IC50 (Homo sapiens, Lymphocyte) is 3900 nM. Same read-out and setting: to `C[C@H](Nc1ncncc1C#N)c1nc2ccc(F)cc2n1-c1ccccc1` [Example 316, 4-[(S)-1-(6-Fluoro-1-phenyl-1H-benzoimidazol-2-yl)-ethylamino]-pyrimidine-5-carbonitrile] belongs 481 nM. Same read-out and setting: to `C[C@H](Nc1ncnc2[nH]cnc12)c1nc2ccc(F)cc2n1-c1ccc2c(c1)OCO2` [Example 320, [(S)-1-(l-Benzo[1,3]dioxol-5-yl-6-fluoro-1H-benzoimidazol-2-yl)-ethyl]-(9H-purin-6-yl)-amine] belongs 253 nM. Consider `C[C@H](Nc1ncnn2ccnc12)c1nc2ccc(F)cc2n1-c1ccccc1` [Example 321, [(S)-1-(6-Fluoro-1-phenyl-1H-benzoimidazol-2-yl)-ethyl]-imidazo[2,1-f][1,2,4]triazin-4-yl-amine], for which the half-maximal inhibitory concentration (IC50) (Homo sapiens, Lymphocyte) was found to be 18.8 nM. Still for that read-out and setting: the result for `C[C@H](Nc1ncnn2ccnc12)c1nc2ccc(F)cc2n1-c1ccccn1` [Example 322, [(S)-1-(6-Fluoro-1-pyridin-2-yl-1H-benzoimidazol-2-yl)-ethyl]-imidazo[2,1-f][1,2,4]triazin-4-yl-amine] reads 145 nM; that for `CC(Nc1ncnc2[nH]cnc12)c1nc2ccc(F)c(O)c2n1-c1ccccc1` (stereo not shown) [Example 327, 5-Fluoro-3-phenyl-2-[1-(9H-purin-6-ylamino)-ethyl]-3H-benzoimidazol-4-ol], 196 nM. With `Cc1nc(N)nc(N[C@@H](C)c2nc3ccc(F)cc3n2-c2ccccc2)c1C#N` [Example 328, 2-Amino-4-[(S)-1-(6-fluoro-1-phenyl-1H-benzoimidazol-2-yl)-ethylamino]-6-methyl-pyrimidine-5-carbonitrile], the IC50 (Homo sapiens, Lymphocyte) was determined as 3.44 nM. On to `C[C@H](Nc1ncnc(N)c1C#N)c1nc2ccc(F)c(C#N)c2n1-c1ccccc1` [Example 330, 2-[(S)-1-(6-Amino-5-cyano-pyrimidin-4-ylamino)-ethyl]-5-fluoro-3-phenyl-3H-benzoimidazole-4-carbonitrile], for which the IC50 (Homo sapiens, Lymphocyte) came out at 12.9 nM. Consider `C[C@H](Nc1ncnc2[nH]cnc12)c1nc2ccc(F)cc2n1-c1ccncn1` [Example 332, [(S)-1-(6-Fluoro-1-pyrimidin-4-yl-1H-benzoimidazol-2-yl)-ethyl]-(9H-purin-6-yl)-amine], for which the IC50 (Homo sapiens, Lymphocyte) was 81.7 nM. As for `Cc1nc(N)nc(N[C@@H](C)c2nc3ccc(F)cc3n2-c2ccccn2)c1C#N` [Example 333, 2-Amino-4-[(S)-1-(6-fluoro-1-pyridin-2-yl-1H-benzoimidazol-2-yl)-ethylamino]-6-methyl-pyrimidine-5-carbonitrile], where the note is “Homo sapiens, Lymphocyte”, the IC50 turned out to be 4.92 nM. As to `C[C@H](Nc1ncnc(N)c1C#N)c1nc2cccnc2n1-c1ccccc1` [Example 337, 4-Amino-6-[(S)-1-(3-phenyl-3H-imidazo[4,5-b]pyridin-2-yl)-cthylamino]-pyrimidine-5-carbonitrile], the IC50 (Homo sapiens, Lymphocyte) came out at 96.6 nM.

A word on the IC50: it is the point on the concentration scale where inhibition reaches its midpoint.
